Experimental data: US8968780B2, “Stabilized pharmaceutical composition” (Egis Gyogyszergyar Nyilvanosan Muekoedoe Reszvenytarsasag, priority 2010, dated 2015)
Read-outs that look alike come from different tables or passages of the source.

Assays:
[1] = Preformulation stability of pregabalin with physically admixed non-reducing saccharides (appearance, scent); format: physicochemical

In the case of CC(C)CC(CN)CC(=O)O (stereo not drawn) [Pregabalin, 5-methyl-3-aminomethyl-hexanoic acid], the Scent ([1]; 40° C./75% RH/4 Weeks/open) is reported as “Odourless”, the Scent ([1]; 50° C./4 Weeks/closed) is reported as “Odourless” and the Scent ([1]; Initial) is reported as “Odourless”. For the same molecule, the “% Known Impurities Lactum RRT = 3.91” value (40° C./75% RH/4 Weeks/open) was 0.004%, the “% Known Impurities Lactum RRT = 3.91” value (60° C./2 Weeks/closed) was 0.006% and the “% Known Impurities Lactum RRT = 3.91” value (Initial) was <0.0003%.
